≈ marks a conversion by molar mass, not a printed value.
How the values were obtained:
[1] = anatomic pathology (histopathology of heart and kidney) in mice; assay type: in vivo; details: CD-1 mice, 20 mg/kg intravenously daily for 9 days, necropsy day 10, microscopic histopathology
Experimental: Samples of tissues from necropsied mice were formalin-fixed, paraffin-embedded, sectioned, stained with hematoxylin and eosin, and examined microscopically. Histopathologic findings were recorded. These findings were subjectively graded on a scale corresponding to slight, mild, moderate, marked and severe as compared to untreated controls.

Streptococcus sp. = assay: in vitro antibacterial evaluation, MIC by broth dilution; assay type: cell-based; details: broth dilution, 18 hours at 35° C.
Outline: (§1)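 MIC, the lowest antibiotic concentration preventing growth, was read across 64-0.06 μg/mL with 5×10^5 CFU/mL inoculum. Method followed NCCLS M7-A2 broth dilution using Mueller-Hinton II; Gram-positive strains covered recent methicillin-, penicillin- and/or vancomycin-resistant clinical isolates.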

Staphylococcus sp. = assay: as above; assay type: cell-based; details: broth dilution, 18 hours at 35° C.
Outline: as §1

Enterococcus sp. = assay: as above; assay type: cell-based; details: broth dilution, 18 hours at 35° C.
Outline: as §1

[2] = clinical pathology (serum clinical chemistry) in mice; assay type: in vivo; details: CD-1 mice, 20 mg/kg intravenously daily for 9 days, sera day 10
Experimental: 20-day-old CD-1 mice were divided into a vehicle control group (5 mice) and a treatment group (5 mice). Samples of glycopeptide antibiotics were administered at 20 mg/kg intravenously daily for 9 days.

[3] = system: Staphylococcus aureus-SMITH (GC 4543); assay: acute lethal infection in mice; assay type: in vivo; details: acute lethal infection, female CD-1 mice, intraperitoneal challenge, intravenous 30 min. after infection, 7 day survival
Outline: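 Mice (female CD-1, 20+/−2 gm) receive bacteria ip in broth or hog gastric mucin, then test agent iv after 30 min. Median effective dose is calculated from 7 day survival pooled across 3 tests.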

Escherichia coli = assay: in vitro antibacterial evaluation, MIC by broth dilution; assay type: cell-based; details: 18 hours at 35° C.

## COc1ccc2cc(COCC3OC(OC4C(CO)OC(Oc5ccc(CC6NC(=O)C(C(C)c7ccccc7)NC(=O)CNC(=O)C(CO)NC(=O)C(CC7CNC(=N)N7C7OC(CO)C(O)C(O)C7O)NC(=O)C(CC7CNC(=N)N7)NC6=O)cc5)C(O)C4O)C(O)C(O)C3O)ccc2c1 (stereo not drawn) [Example 245, Cyclo[3-(2-iminoimidazolidin-4-yl)alanyl-3-(3-hexopyranosyl-2-iminoimidazolidin-4-yl)-alanylserylglycyl-β-methylphenylalanyl-O-[4-O-[6-O-[(6-methoxy-2-naphthyl)methyl]-hexopyranosyl]hexopyranosyl]tyrosyl]]
[1]
  Anatomical Pathology (Day 10), Heart: 0
  Anatomical Pathology (Day 10), Kidney: +++
Streptococcus sp.
  MIC Streptococcus agalactiae (GC 4564): 4 µg/mL (≈ 2.79 µM)
  MIC Streptococcus pneumoniae (ATCC 6301): 2 µg/mL (≈ 1.4 µM)
  MIC Streptococcus pneumoniae (GC 1894): 1 µg/mL (≈ 0.698 µM)
  MIC Streptococcus pneumoniae (GC 4565): 4 µg/mL (≈ 2.79 µM)
  MIC Streptococcus pyogenes (GC 4563): 4 µg/mL (≈ 2.79 µM)
Streptococcus sp.; inoculum 5×10^5 CFU/mL, strain ATCC 6301
  MIC Streptococcus pneumoniae (ATCC 6301): 2 µg/mL (≈ 1.4 µM)
Streptococcus sp.; inoculum 5×10^5 CFU/mL, strain GC 1894
  MIC Streptococcus pneumoniae (GC 1894): 1 µg/mL (≈ 0.698 µM)
Streptococcus sp.; inoculum 5×10^5 CFU/mL, strain GC 4563
  MIC Streptococcus pyogenes (GC 4563): 4 µg/mL (≈ 2.79 µM)
Streptococcus sp.; inoculum 5×10^5 CFU/mL, strain GC 4564
  MIC Streptococcus agalactiae (GC 4564): 4 µg/mL (≈ 2.79 µM)
Streptococcus sp.; inoculum 5×10^5 CFU/mL, strain GC 4565
  MIC Streptococcus pneumoniae (GC 4565): 4 µg/mL (≈ 2.79 µM)
Staphylococcus sp.
  MIC Coagulase Negative Staphylococcus (GC 4547): 4 µg/mL (≈ 2.79 µM)
  MIC Coagulase Negative Staphylococcus (GC 4548): 2 µg/mL (≈ 1.4 µM)
  MIC Coagulase Negative Staphylococcus (GC 4549): 1 µg/mL (≈ 0.698 µM)
  MIC Coagulase Negative Staphylococcus (GC 4551): 8 µg/mL (≈ 5.58 µM)
  MIC Coagulase Negative Staphylococcus (GC 6257): 2 µg/mL (≈ 1.4 µM)
  MIC Staphylococcus aureus (ATCC 29213): 4 µg/mL (≈ 2.79 µM)
  MIC Staphylococcus aureus (GC 1131): 8 µg/mL (≈ 5.58 µM)
  MIC Staphylococcus aureus (GC 3051): 4 µg/mL (≈ 2.79 µM)
  MIC Staphylococcus aureus (GC 3053): 4 µg/mL (≈ 2.79 µM)
  MIC Staphylococcus aureus (GC 4541): 4 µg/mL (≈ 2.79 µM)
  MIC Staphylococcus aureus (GC 4542): 4 µg/mL (≈ 2.79 µM)
  MIC Staphylococcus aureus (GC 4544): 8 µg/mL (≈ 5.58 µM)
  MIC Staphylococcus aureus (GC 4545): 4 µg/mL (≈ 2.79 µM)
  MIC Staphylococcus aureus-SMITH (GC 4543): 4 µg/mL (≈ 2.79 µM)
  MIC Staphylococcus haemolyticus (GC 4546): 4 µg/mL (≈ 2.79 µM)
Staphylococcus sp.; strain ATCC 29213
  MIC Staphylococcus aureus (ATCC 29213): 4 µg/mL (≈ 2.79 µM)
Staphylococcus sp.; strain GC 1131
  MIC Staphylococcus aureus (GC 1131): 8 µg/mL (≈ 5.58 µM)
Staphylococcus sp.; strain GC 3051
  MIC Staphylococcus aureus (GC 3051): 4 µg/mL (≈ 2.79 µM)
Staphylococcus sp.; strain GC 3053
  MIC Staphylococcus aureus (GC 3053): 4 µg/mL (≈ 2.79 µM)
Staphylococcus sp.; strain GC 4541
  MIC Staphylococcus aureus (GC 4541): 4 µg/mL (≈ 2.79 µM)
Staphylococcus sp.; strain GC 4542
  MIC Staphylococcus aureus (GC 4542): 4 µg/mL (≈ 2.79 µM)
Staphylococcus sp.; strain GC 4543
  MIC Staphylococcus aureus-SMITH (GC 4543): 4 µg/mL (≈ 2.79 µM)
Staphylococcus sp.; strain GC 4544
  MIC Staphylococcus aureus (GC 4544): 8 µg/mL (≈ 5.58 µM)
Staphylococcus sp.; strain GC 4545
  MIC Staphylococcus aureus (GC 4545): 4 µg/mL (≈ 2.79 µM)
Staphylococcus sp.; strain GC 4546
  MIC Staphylococcus haemolyticus (GC 4546): 4 µg/mL (≈ 2.79 µM)
Staphylococcus sp.; strain GC 4547
  MIC Coagulase Negative Staphylococcus (GC 4547): 4 µg/mL (≈ 2.79 µM)
Staphylococcus sp.; strain GC 4548
  MIC Coagulase Negative Staphylococcus (GC 4548): 2 µg/mL (≈ 1.4 µM)
Staphylococcus sp.; strain GC 4549
  MIC Coagulase Negative Staphylococcus (GC 4549): 1 µg/mL (≈ 0.698 µM)
Staphylococcus sp.; strain GC 4551
  MIC Coagulase Negative Staphylococcus (GC 4551): 8 µg/mL (≈ 5.58 µM)
Staphylococcus sp.; strain GC 6257
  MIC Coagulase Negative Staphylococcus (GC 6257): 2 µg/mL (≈ 1.4 µM)
Enterococcus sp.
  MIC Enterococcus avium (GC 4558): 16 µg/mL (≈ 11.2 µM)
  MIC Enterococcus faecalis (ATCC 29212): 32 µg/mL (≈ 22.3 µM)
  MIC Enterococcus faecalis (GC 2242): 16 µg/mL (≈ 11.2 µM)
  MIC Enterococcus faecalis (GC 2691): 32 µg/mL (≈ 22.3 µM)
  MIC Enterococcus faecalis (GC 3059): 16 µg/mL (≈ 11.2 µM)
  MIC Enterococcus faecalis (GC 4552): 16 µg/mL (≈ 11.2 µM)
  MIC Enterococcus faecalis (GC 4553): 16 µg/mL (≈ 11.2 µM)
  MIC Enterococcus faecalis (GC 4554): 32 µg/mL (≈ 22.3 µM)
  MIC Enterococcus faecalis (GC 6189): 32 µg/mL (≈ 22.3 µM)
  MIC Enterococcus faecium (GC 2243): 16 µg/mL (≈ 11.2 µM)
  MIC Enterococcus faecium (GC 4556): 16 µg/mL (≈ 11.2 µM)
  MIC Enterococcus faecium (GC 4557): 4 µg/mL (≈ 2.79 µM)
Enterococcus sp.; strain ATCC 29212
  MIC Enterococcus faecalis (ATCC 29212): 32 µg/mL (≈ 22.3 µM)
Enterococcus sp.; strain GC 2243
  MIC Enterococcus faecium (GC 2243): 16 µg/mL (≈ 11.2 µM)
Enterococcus sp.; strain GC 4552
  MIC Enterococcus faecalis (GC 4552): 16 µg/mL (≈ 11.2 µM)
Enterococcus sp.; strain GC 4553
  MIC Enterococcus faecalis (GC 4553): 16 µg/mL (≈ 11.2 µM)
Enterococcus sp.; strain GC 4554
  MIC Enterococcus faecalis (GC 4554): 32 µg/mL (≈ 22.3 µM)
Enterococcus sp.; strain GC 4556
  MIC Enterococcus faecium (GC 4556): 16 µg/mL (≈ 11.2 µM)
Enterococcus sp.; strain GC 4557
  MIC Enterococcus faecium (GC 4557): 4 µg/mL (≈ 2.79 µM)
Enterococcus sp.; strain GC 4558
  MIC Enterococcus avium (GC 4558): 16 µg/mL (≈ 11.2 µM)
Enterococcus sp.; strain GC 6189
  MIC Enterococcus faecalis (GC 6189): 32 µg/mL (≈ 22.3 µM)
Enterococcus sp.; inoculum 5×10^5 CFU/mL, strain GC 2242
  MIC Enterococcus faecalis (GC 2242): 16 µg/mL (≈ 11.2 µM)
Enterococcus sp.; inoculum 5×10^5 CFU/mL, strain GC 2691
  MIC Enterococcus faecalis (GC 2691): 32 µg/mL (≈ 22.3 µM)
Enterococcus sp.; inoculum 5×10^5 CFU/mL, strain GC 3059
  MIC Enterococcus faecalis (GC 3059): 16 µg/mL (≈ 11.2 µM)
[2]
  Clinical Chemistry (Day 10) % of Control, BUN: +160%
  Clinical Chemistry (Day 10) % of Control, Creatinine: +138%
[3]
  median effective dose (ED50), Staphylococcus aureus-SMITH (GC 4543): 4 mg/kg
Escherichia coli
  MIC Escherichia coli (ATCC 25922): 64 µg/mL (≈ 44.6 µM)
  MIC Escherichia coli (GC 4559): 32 µg/mL (≈ 22.3 µM)
  MIC Escherichia coli (GC 4560): 4 µg/mL (≈ 2.79 µM)

Source: US6914045B2, “Glycopeptide antibiotics” (Wyeth Holdings Corporation, priority 2001, dated 2005)
